Experimental data taken from patent publication US11779015B2, “Pesticide compositions” (FUNDACIÓ CENTRE DE REGULACIÓ GENÒMICA, priority 2017, dated 2023).

System: D. suzukii
Assay: Infestation of pre-odour-treated blueberries, emergence of adult flies
Format: in vivo, Drosophila suzukii
Settings: 48 hours with adult flies, counted after 14 days
Method: Adult mixed female and male flies 20 (in the experiments below, D. suzukii flies) are placed in a cylindrical cage 60a with mesh roofing 80 for ventilation. Fruits 40 (in the experiments below 8 blueberries were used) are placed into a petri dish bottom 60b at the bottom of the cage 60a.
The blueberries were treated with (E)-2-hexenal and then exposed to flies. The impact of 1% vol, 5% vol and 10% vol aqueous emulsions of (E)-2-hexenal (obtained by dissolving the VOC in deionized water (DI) containing 1% (v/v) Tween 20 hydrophilic emulsifier) on egg-laying and the survival and development of larvae in pre-treated blueberries were compared to water-treated controls. In particular, the number of flies emerging after 14 days at ambient temperature was counted, following 48 hours of incubation of the treated blueberries with adult flies. The results of this analysis are shown on FIG. 6B. […] Significance was assessed by one-way ANOVA followed by Bonferroni correction at p≤0.05 and post-hoc two-sample t-test.
Eight ripe blueberries were dipped into 10 mL of a 1%, 5% or 10% aqueous emulsion of (E)-2-hexenal or deionised water as a control and left to air dry. They were then placed in a Petri dish at the bottom of a cylindrical plastic fly cage (∅=5.5 cm, h=7.5 cm), together with 20 mixed (10 females, 10 males) adult D. suzukii flies. The flies were exposed to the odour-treated blueberries during 48 hours at ambient room temperature conditions, after which they were removed and discarded. The blueberries were then transferred into an empty fly vial with cotton lids, and after 14 days at ambient room temperature conditions, the emergence of adult D. suzukii was examined by counting the number of flies. The assay was repeated 5 times.

SMILES: CCC/C=C/C=O [(E)-2-hexenal]
- fly emergence from pre-treated blueberries versus untreated (1% aqueous emulsion): not significantly different from untreated berries
- fly emergence from pre-treated blueberries versus untreated (5% aqueous emulsion): significant reduction of fly emergence
- fly emergence from pre-treated blueberries versus untreated (10% aqueous emulsion): significant reduction of fly emergence
